The text below walks through data of patent US7563781B2, “Triazolopyrimidine derivatives” (Janssen Pharmaceutica NV, priority 2006, dated 2009).

Like-named read-outs stand apart in the source and are kept apart here.

In assay [1] the target is T1, Focal Adhesion Kinase (full-length Flag-tagged human FAK) (Homo sapiens, UniProt Q05397).
T1 construct: a purified recombinant full-length Flag-tagged human FAK protein; Flag; made in house; host or cells: baculovirus infected insect cells
Description: in vitro FAK ELISA kinase assay. It is filed as biochemical. As to conditions: read-out: FAK % Inhib ave: 10 uM. On the procedure: Compound effects on the tyrosine kinase activity of Focal Adhesion Kinase were assessed with an in vitro FAK ELISA kinase assay. This assay measures the incorporation of phosphate from ATP into a FAK substrate protein using an antibody specific for phospho-tyrosine.
500 ng of FAKsubstrate, a purified recombinant fusion protein of GST and a 73 amino acid region surrounding the Tyr397 human FAK autophosphorylation site, was coated in a high-protein binding polystyrene 96 well plate overnight in a buffer containing 50 mM Hepes, pH 7.5, 150 mM NaCl, 0.1 mM Na-oVO4, 0.1 mM NaF and 1 protease inhibitor tablet/10 mL (Complete Mini-EDTA-free, Roche). The next day this solution was removed and the wells were incubated with 0.2% BSA in 50 mM Hepes, pH 7.5, 150 mM NaCl, 0.2 mM PMSF for 1 hour at 30° C. to block unoccupied protein binding sites. The wells were then washed with 50 mM Hepes, pH 7.5, 150 mM NaCl, 0.1% Tween 20. The kinase reaction was performed with 25 ng/well of FAK enzyme (a purified recombinant full-length Flag-tagged human FAK protein made in baculovirus infected insect cells) in 0.1 mL of a buffer containing 25 mM Hepes, pH 7.5, 5 mM MgCl2, 0.5 mM MnCl2, 10 uM NaoVO4, 0.2 mM PMSF. Compounds were added from 30% DMSO stock solutions for a screening concentration of 10 uM or IC50 determinations from 50 uM in half-log dilutions. The reaction is initiated with addition of ATP to a final concentration of 2 uM and incubated at 30° C. for 1 hour. Following the kinase reaction step, the wells were washed and incubated with 50 ng of Horseradish Peroxidase conjugated anti-phosphotyrosine antibody (PT-66 HRP, Sigma) in 0.1 mL wash buffer for 1 hour at 30° C. Wells were then washed and 0.1 mL HRP substrate, Tetra-methyl Benzidine (Sigma) was added and the color reaction allowed to proceed for 2-3 minutes followed by the addition of 0.1 mL of 1N H2SO4 to stop the HRP reaction. Percent inhibition of FAK kinase activity was calculated by comparing compound containing wells to wells treated with diluent only. Background was subtracted from all wells and was defined as the activity of FAK using 500 ng/well of BSA as a substrate. IC50 values were obtained using Prism data analysis software.
Background: ELISA stands for enzyme-linked immunosorbent assay.

Assay [2] addresses T2, CAK complex (human Cdk7, human Cyclin H, MAT-1) (Homo sapiens, UniProt P50613).
T2 construct: made in house; host or cells: SF-900 insect cells co-infected with Flag-Cdk7 and Bab-Cyclin H baculoviruses
Description: in vitro time-resolved-fluorescence assay for the CAK kinase activity. It is filed as biochemical. Particulars: compound 20 uM; read-out: CAK % inhib; 20 uM. An excerpt:
Cyclin Dependent Kinase Activating Kinase (CAK) is a complex of proteins that phosphorylates a well-conserved threonine (Thr) residue in all mammalian cyclin dependent kinases (cdks). The CAK complex can also phosphorylate several components of the transcriptional machinery, such as the C-terminal domain (CTD) of RNA polymerase II in the TFIIH transcription complex. The CAK complex localizes to the nucleus, and is composed of three proteins: Cdk7, Cyclin H, and MAT-1. The exemplified method teaches the cloning and expression CAK subunits, particularly a human Cdk7 and a human Cyclin H. The method of the present invention exemplified herein is equally applicable to the cloning and expression of any CAK subunit, such as variants, structural or functional polymorphisms of the human Cdk7 or the human Cyclin H, or their orthologs in other animals such as rat, mouse, pig, dog and monkey.
The CAK complex was purified from co-infected SF-900 insect cells at 48 hours post infection by batch immunoaffinity purification. The infected cells were pelleted by centrifugation and lysed in 1/10 of the culture volume in a solution containing 50 mM Hepes pH 7.5, 10 mM MgCl2, 1 mM DTT, 10 mM Beta-Glycerol phosphate, 20 uM Na-oVO4, 0.2 mM PMSF and 1 μg/mL each of leupeptin, aprotinin, and pepstatin on ice. Cells were mechanically lysed by trituration through a 22-gauge needle followed by sonication or alternately by nitrogen cavitation. The lysed cells were centrifuged at 50,000×G for 1 hour at 4° C. to remove debris and the supernatant was applied to 1/10 volume of prewashed Flag-M2 immunoaffinity resin (Sigma). The CAK complex, by nature of the Flag tagged Cdk7 protein, was allowed to bind to the Flag antibody of the resin overnight at 4° C. with gentle rocking. The resin was washed 4 times with 5 resin volumes of lysis buffer and the bound proteins were eluted by competition with 0.5 mg/mL Flag peptide ([…], American Peptide Co, Inc., SEQ ID NO: 16) in a total of 2 resin volumes. To remove the Flag peptide, the eluted material was applied to PD-10 gel filtration columns (Pharmacia) under conditions recommended by the manufacturer.
Measurement of CAK kinase activity was accomplished using an antibody methodology in which a Europium labeled antibody binds preferentially to serine phosphorylated GST-CTD substrate. The long-lived europium label fluorescence allows a greater signal-to-noise ratio due to the delay in reading the emission wavelength, thereby eliminating signals from immediate fluorescence and fluorescent pharmaceutical screening compounds.
The time-resolved-fluorescence assay for the CAK kinase activity is performed as follows. In a well of a black glutathione coated 96 well micro titer plate (Pierce Chemical, No. 15360), the following reagents were added: 1) 25 ul substrate solution containing 500 ng purified GST-CTD in a buffer having 50 mM Hepes pH 7.5, 10 mM MgCl2, 1 mM DTT, 0.2 mM PMSF, 40 uM Na-oVO4, and 22 uM ATP (as a background control, the buffer, including ATP but not substrate was added); 2) 2.5 ul of screening compounds in a diluent containing 30% DMSO/25 mM Hepes pH7.5 (As a control, the diluent only was added. Typically the final concentration of compound is 1 uM); and 3) 250 ng CAK enzyme complex in enzyme buffer containing 25 ul of 50 mM Hepes pH 7.5, 10 mM MgCl2, 1 mM DTT, 0.2 mM PMSF, and 40 uM Na-oVO4. The micro titer plate was shaken for 2 minutes on a titer plate shaker and allowed to incubate at 30° C. for 20 minutes.
Subsequently, Kinase Stop Solution (75 mM EDTA, 0.2 mM PMSF, 1 mM DTT, 120 uM Na oVO4 in PBS) was added (50 ul/well). The plate was shaken for 2 minutes and incubated overnight at room temperature to allow substrate binding to the wells. The plate contents were flicked out, and the wells of the plate were washed 4 times with 350 ul of wash buffer (Delphia wash buffer, Perkin-Elmer, Inc.). The plate was tapped dry. […]

T1 sequence (Q05397 whole entry): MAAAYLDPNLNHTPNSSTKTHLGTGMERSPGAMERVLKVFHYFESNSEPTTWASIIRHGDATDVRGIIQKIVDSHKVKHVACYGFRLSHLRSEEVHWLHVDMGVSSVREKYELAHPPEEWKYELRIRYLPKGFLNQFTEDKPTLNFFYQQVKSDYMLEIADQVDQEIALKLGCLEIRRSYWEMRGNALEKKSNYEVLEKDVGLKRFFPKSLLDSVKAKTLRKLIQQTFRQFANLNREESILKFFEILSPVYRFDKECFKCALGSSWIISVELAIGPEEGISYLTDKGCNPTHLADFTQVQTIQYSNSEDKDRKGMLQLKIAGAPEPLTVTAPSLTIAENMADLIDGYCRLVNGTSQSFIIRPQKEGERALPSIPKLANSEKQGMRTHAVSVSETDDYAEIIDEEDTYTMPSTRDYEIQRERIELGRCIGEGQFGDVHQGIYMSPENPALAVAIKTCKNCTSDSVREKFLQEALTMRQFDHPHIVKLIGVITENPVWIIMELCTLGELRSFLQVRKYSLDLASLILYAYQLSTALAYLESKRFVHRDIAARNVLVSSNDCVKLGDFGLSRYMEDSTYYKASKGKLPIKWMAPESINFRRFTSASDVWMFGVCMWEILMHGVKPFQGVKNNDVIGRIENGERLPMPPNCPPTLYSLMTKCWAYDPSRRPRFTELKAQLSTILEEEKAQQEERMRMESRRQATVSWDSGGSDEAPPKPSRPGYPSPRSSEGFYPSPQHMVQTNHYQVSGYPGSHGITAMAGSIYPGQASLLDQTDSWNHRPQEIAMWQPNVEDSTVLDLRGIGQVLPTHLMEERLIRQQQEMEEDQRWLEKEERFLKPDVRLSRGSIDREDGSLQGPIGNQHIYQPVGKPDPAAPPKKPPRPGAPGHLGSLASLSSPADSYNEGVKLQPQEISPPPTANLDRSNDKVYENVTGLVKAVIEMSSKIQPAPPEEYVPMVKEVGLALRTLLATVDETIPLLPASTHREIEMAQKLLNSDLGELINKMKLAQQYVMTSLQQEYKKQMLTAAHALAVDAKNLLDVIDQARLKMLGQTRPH
T2 sequence (P50613 with tags, fused parts or gaps): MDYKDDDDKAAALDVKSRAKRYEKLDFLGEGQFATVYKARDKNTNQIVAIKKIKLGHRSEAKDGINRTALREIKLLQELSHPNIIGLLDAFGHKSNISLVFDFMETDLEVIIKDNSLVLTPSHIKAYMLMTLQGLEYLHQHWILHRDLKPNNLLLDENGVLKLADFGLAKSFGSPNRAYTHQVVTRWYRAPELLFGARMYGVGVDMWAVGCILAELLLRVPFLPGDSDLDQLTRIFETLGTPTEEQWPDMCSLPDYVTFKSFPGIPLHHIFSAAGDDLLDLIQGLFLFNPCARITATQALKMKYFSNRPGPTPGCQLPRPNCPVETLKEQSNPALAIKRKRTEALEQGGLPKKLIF
T2 sequence (as listed by the source partner): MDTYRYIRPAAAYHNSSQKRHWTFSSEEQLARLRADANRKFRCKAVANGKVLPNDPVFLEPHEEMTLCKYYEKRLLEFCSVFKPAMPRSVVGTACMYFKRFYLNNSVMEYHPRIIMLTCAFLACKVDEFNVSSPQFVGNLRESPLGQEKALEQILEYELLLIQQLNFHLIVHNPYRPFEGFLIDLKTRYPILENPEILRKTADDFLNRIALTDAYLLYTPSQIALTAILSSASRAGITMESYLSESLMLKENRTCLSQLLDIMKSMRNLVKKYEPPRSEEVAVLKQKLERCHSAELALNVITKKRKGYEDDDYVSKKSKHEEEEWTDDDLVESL

Consider `CN(C)CC(O)COc1ccc(Nc2ncc3nnn(-c4ccc5c(c4)Cc4ccccc4-5)c3n2)cc1` (centres unmarked) [Compound 17, 1-Dimethylamino-3-{4-[3-(9H-fluoren-2-yl)-3H-[1,2,3]triazolo[4,5-d]pyrimidin-5-ylamino]-phenoxy}-propan-2-ol], for which the inhibition at 10 µM in assay [1] (compound 10 uM, ATP 2 uM) amounted to 86.8%. Further, in assay [2], the inhibition at 20 µM was 53.8%.

Turning to `CN(Cc1ccccc1Nc1ncc2nnn(-c3ccc4c(c3)CCC4)c2n1)C1CCCCC1` [Compound 18, {2-[(Cyclohexyl-methyl-amino)-methyl]-phenyl}-(3-indan-5-yl-3H-[1,2,3]triazolo[4,5-d]pyrimidin-5-yl)-amine], the inhibition at 10 µM in assay [1] (compound 10 uM, ATP 2 uM) amounted to 12.2%. Also, in assay [2], the inhibition at 20 µM was found to be 20.7%.

On to `CCN(CC)CCNC(=O)c1ccc(-n2nnc3cnc(Nc4ccc5c(c4)CCC5)nc32)cc1` [Compound 19, N-(2-Diethylamino-ethyl)-4-[5-(indan-5-ylamino)-[1,2,3]triazolo[4,5-d]pyrimidin-3-yl]-benzamide], for which, in assay [1] (compound 10 uM, ATP 2 uM), the inhibition at 10 µM was determined as 68.8%. In addition, the inhibition at 20 µM in assay [2] was -63.7%.

Turning to `CN(Cc1ccccc1-n1nnc2cnc(Nc3ccc4c(c3)CCC4)nc21)C1CCCCC1` [Compound 20, (3-{2-[(Cyclohexyl-methyl-amino)-methyl]-phenyl}-3H-[1,2,3]triazolo[4,5-d]pyrimidin-5-yl)-indan-5-yl-amine], the inhibition at 10 µM in assay [1] (compound 10 uM, ATP 2 uM) worked out at 13%. Moreover, the inhibition at 20 µM in assay [2] was 12.5%.

Consider `CN(Cc1ccccc1Nc1ncc2nnn(-c3ccccc3CN(C)C3CCCCC3)c2n1)C1CCCCC1` [Compound 21, {2-[(Cyclohexyl-methyl-amino)-methyl]-phenyl}-(3-{2-[(cyclohexyl-methyl-amino)-methyl]-phenyl}-3H-[1,2,3]triazolo[4,5-d]pyrimidin-5-yl)-amine], for which, in assay [1] (compound 10 uM, ATP 2 uM), the inhibition at 10 µM was 19%. Also, the inhibition at 20 µM in assay [2] is 23.3%.

For the compound `CCN(CC)CCNC(=O)c1ccc(Nc2ncc3nnn(-c4ccc5c(c4)CCC5)c3n2)cc1` [Compound 22, N-(2-Diethylamino-ethyl)-4-(3-indan-5-yl-3H-[1,2,3]triazolo[4,5-d]pyrimidin-5-ylamino)-benzamide], the inhibition at 10 µM in assay [1] (compound 10 uM, ATP 2 uM) came out at 98.9%. Besides, the inhibition at 20 µM in assay [2] was determined as 96.9%.

For `c1ccc(-c2cccc(Nc3ncc4nnn(-c5ccc6c(c5)CCC6)c4n3)c2)cc1` [Compound 23, Biphenyl-3-yl-(3-indan-5-yl-3H-[1,2,3]triazolo[4,5-d]pyrimidin-5-yl)-amine], the inhibition at 10 µM in assay [1] (compound 10 uM, ATP 2 uM) was 13%. In addition, in assay [2], the inhibition at 20 µM came to 43.5%.

On to `CCOP(=O)(Cc1ccc(Nc2ncc3nnn(-c4ccc5c(c4)CCC5)c3n2)cc1)OCC` [Compound 24, [4-(3-Indan-5-yl-3H-[1,2,3]triazolo[4,5-d]pyrimidin-5-ylamino)-benzyl]-phosphonic acid diethyl ester], for which the inhibition at 10 µM in assay [1] is 34%. Besides, the inhibition at 20 µM in assay [2] is 24.7%.

`CCOC(=O)Cc1ccc(Nc2ncc3nnn(-c4ccc5c(c4)CCC5)c3n2)cc1` [Compound 25, [4-(3-Indan-5-yl-3H-[1,2,3]triazolo[4,5-d]pyrimidin-5-ylamino)-phenyl]-acetic acid ethyl ester]: the inhibition at 10 µM in assay [1] (compound 10 uM, ATP 2 uM) worked out at 30%. Further, the inhibition at 20 µM in assay [2] is 21%.

For the compound `CCOC(=O)c1cccc(Nc2ncc3nnn(-c4ccc5c(c4)CCC5)c3n2)c1` [Compound 26, 3-(3-Indan-5-yl-3H-[1,2,3]triazolo[4,5-d]pyrimidin-5-ylamino)-benzoic acid ethyl ester], the inhibition at 10 µM in assay [1] (compound 10 uM, ATP 2 uM) was 13%. In assay [2], the inhibition at 20 µM amounted to 25.9%.

Take `CNC(=O)c1cccc(Nc2ncc3nnn(-c4ccc5c(c4)CCC5)c3n2)c1` [Compound 27, 3-(3-Indan-5-yl-3H-[1,2,3]triazolo[4,5-d]pyrimidin-5-ylamino)-N-methyl-benzamide]: in assay [1] (compound 10 uM, ATP 2 uM), the inhibition at 10 µM stood at 74.4%. Besides, the inhibition at 20 µM in assay [2] amounted to 21.4%.

For the compound `CCOC(=O)/C=C/c1ccc(Nc2ncc3nnn(-c4ccc5c(c4)CCC5)c3n2)cc1` [Compound 28, 3-[4-(3-Indan-5-yl-3H-[1,2,3]triazolo[4,5-d]pyrimidin-5-ylamino)-phenyl]-acrylic acid ethyl ester], the inhibition at 10 µM in assay [1] (compound 10 uM, ATP 2 uM) came to 16%. Further, the inhibition at 20 µM in assay [2] was determined as 54.7%.

As to `c1cc(-c2csnn2)ccc1Nc1ncc2nnn(-c3ccc4c(c3)CCC4)c2n1` [Compound 29, (3-Indan-5-yl-3H-[1,2,3]triazolo[4,5-d]pyrimidin-5-yl)-(4-[1,2,3]thiadiazol-4-yl-phenyl)-amine], the inhibition at 10 µM in assay [1] (compound 10 uM, ATP 2 uM) is 11%. For the same compound, the inhibition at 20 µM in assay [2] is 16.3%.

For `CN(C)CC(O)COc1ccc(Nc2ncc3nnn(C4CCC(C(=O)O)CC4)c3n2)cc1` (centres unmarked) [Compound 30, 4-{5-[4-(3-Dimethylamino-2-hydroxy-propoxy)-phenylamino]-[1,2,3]triazolo[4,5-d]pyrimidin-3-yl}-cyclohexane-carboxylic acid], the inhibition at 10 µM in assay [1] (compound 10 uM, ATP 2 uM) stood at 30%. In assay [2], the inhibition at 20 µM is 38.6%.

Turning to `CN(C)CC(O)COc1ccc(Nc2ncc3nnn(C4CCCC(C(=O)O)C4)c3n2)cc1` (centres unmarked) [Compound 31, 3-{5-[4-(3-Dimethylamino-2-hydroxy-propoxy)-phenylamino]-[1,2,3]triazolo[4,5-d]pyrimidin-3-yl}-cyclohexanecar-boxylic acid], the inhibition at 10 µM in assay [1] (compound 10 uM, ATP 2 uM) was 21.4%. For the same compound, the inhibition at 20 µM in assay [2] was 32.9%.

For the compound `CCN(CC)CCOC(=O)c1ccc(Nc2ncc3nnn(-c4ccc5c(c4)CCC5)c3n2)cc1` [Compound 32, 4-(3-Indan-5-yl-3H-[1,2,3]triazolo[4,5-d]pyrimidin-5-ylamino)-benzoic acid 2-diethylamino-ethyl ester], the inhibition at 10 µM in assay [1] (compound 10 uM, ATP 2 uM) was determined as 30.2%. Moreover, the inhibition at 20 µM in assay [2] was 42%.
